Data as given in ChEMBL document CHEMBL2434902, “A new strategy to improve the metabolic stability of lactone: discovery of (20S,21S)-21-fluorocamptothecins as novel, hydrolytically stable topoisomerase I inhibitors” (J Med Chem, 2013).
The source made the active and inactive calls. The rule behind the calls is not given here.

How the values were obtained:
Mus musculus = assay: Toxicity in BALB/C nude mouse xenografted with human A549 cells assessed as weight loss at 2 mg/kg, ip after 5 days relative to vehicle-treated control; type: organism-based; design: dose 2 mg/kg, route intraperitoneal; conditions: in vivo, 120 h
A549 [1] = assay: Antitumor activity against human A549 cells xenografted in BALB/C nude mouse assessed as tumor growth inhibition at 0.5 mg/kg, ip administered for 5 days measured after day 30 to 33 relative to vehicle-treated control; type: functional, organism-based; design: dose 0.5 mg/kg
HCT-116 = assay: Cytotoxicity against human HCT116 cells after 72 hrs by MTT assay; type: functional, cell-based; conditions: HCT-116, 72 h
A549 [2] = assay: Cytotoxicity against human A549 cells after 72 hrs by MTT assay; type: functional, cell-based; conditions: A549, 72 h
MDA-MB-435 = assay: Cytotoxicity against human MDA-MB-435 cells after 72 hrs by MTT assay; type: functional, cell-based; conditions: MDA-MB-435, 72 h
[3] = Stability of the compound in PBS buffer at pH 7.4 assessed as compound remaining after 6 hrs by HPLC method; type: physicochemical; conditions: read-out: Stability
[4] = target: T1, DNA topoisomerase 1 (Homo sapiens) (UniProt P11387); assay: Inhibition of topoisomerase1 (unknown origin)-mediated supercoiled DNA relaxation at 100 uM after 15 mins by SDS-PAGE analysis
T1 sequence (whole entry): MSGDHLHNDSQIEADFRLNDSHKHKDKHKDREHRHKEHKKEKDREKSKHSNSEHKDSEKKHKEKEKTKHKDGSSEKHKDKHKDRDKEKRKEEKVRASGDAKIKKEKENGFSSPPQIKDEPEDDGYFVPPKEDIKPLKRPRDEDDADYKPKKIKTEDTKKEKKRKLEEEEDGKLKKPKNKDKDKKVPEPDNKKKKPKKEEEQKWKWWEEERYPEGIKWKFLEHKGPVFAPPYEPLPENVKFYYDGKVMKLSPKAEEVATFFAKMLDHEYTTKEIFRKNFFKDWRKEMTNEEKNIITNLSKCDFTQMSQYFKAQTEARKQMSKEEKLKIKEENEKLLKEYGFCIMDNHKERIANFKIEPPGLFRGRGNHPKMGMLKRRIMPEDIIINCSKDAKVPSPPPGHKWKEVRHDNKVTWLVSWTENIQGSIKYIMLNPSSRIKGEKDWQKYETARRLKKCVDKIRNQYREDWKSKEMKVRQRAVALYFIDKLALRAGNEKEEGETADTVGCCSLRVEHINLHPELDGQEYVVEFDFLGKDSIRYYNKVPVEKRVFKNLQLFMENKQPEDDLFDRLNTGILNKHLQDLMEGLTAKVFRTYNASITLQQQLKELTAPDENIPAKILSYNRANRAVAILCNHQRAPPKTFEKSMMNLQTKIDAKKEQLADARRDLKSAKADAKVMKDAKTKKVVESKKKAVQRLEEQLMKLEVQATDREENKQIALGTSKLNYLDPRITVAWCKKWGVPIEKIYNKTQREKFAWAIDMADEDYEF

A549 [5] = assay: Antitumor activity against human A549 cells xenografted in BALB/C nude mouse assessed as tumor growth inhibition at 4 mg/kg, ip administered for 5 days measured after day 30 to 33 relative to vehicle-treated control; type: functional; conditions: route intraperitoneal, read-out: TGI
A549 [6] = assay: Antitumor activity against human A549 cells xenografted in ip dosed BALB/C nude mouse assessed as tumor growth inhibition administered for 5 days measured after day 30 to 33 relative to vehicle-treated control; type: functional, organism-based
A549 [7] = assay: Antitumor activity against human A549 cells xenografted in BALB/C nude mouse assessed as tumor growth inhibition at 2 mg/kg, ip administered for 5 days measured after day 30 to 33 relative to vehicle-treated control; type: functional; conditions: route intraperitoneal, read-out: TGI
A549 [8] = assay: Cell cycle arrest in human A549 cells assessed as accumulation at S phase at 10 uM after 36 hrs by propidium iodide staining-based flow cytometry; type: functional
A549 [9] = assay: Induction of apoptosis in human A549 cells assessed as apoptotic cells at 0.5 uM after 48 hrs by AnnexinV-FITC/propidium iodide staining-based flow cytometry (reference value: 5.23%); type: functional
A549 [10] = assay: Induction of apoptosis in human A549 cells assessed as small, round floating cells at 10 uM after 48 hrs by immunostaining relative to control; type: functional, cell-based
[11] = target: T1, DNA topoisomerase 1 (Homo sapiens); assay: Inhibition of topoisomerase1 (unknown origin)-mediated DNA cleavage at 100 uM after 15 mins by SDS-PAGE analysis
[12] = target: DNA topoisomerase 2-alpha (Homo sapiens) (UniProt P11388); assay: Inhibition of topoisomerase2 alpha (unknown origin)-mediated supercoiled DNA relaxation at 100 uM after 30 mins by SDS-PAGE analysis
[13] = Stability of the compound in PBS buffer at pH 7.4; type: physicochemical
A549 [14] = assay: Cell cycle arrest in human A549 cells assessed as decrease in G0/G1 phase at 10 uM after 36 hrs by propidium iodide staining-based flow cytometry; type: functional

Sequence of DNA topoisomerase 2-alpha (Homo sapiens) (P11388 whole entry): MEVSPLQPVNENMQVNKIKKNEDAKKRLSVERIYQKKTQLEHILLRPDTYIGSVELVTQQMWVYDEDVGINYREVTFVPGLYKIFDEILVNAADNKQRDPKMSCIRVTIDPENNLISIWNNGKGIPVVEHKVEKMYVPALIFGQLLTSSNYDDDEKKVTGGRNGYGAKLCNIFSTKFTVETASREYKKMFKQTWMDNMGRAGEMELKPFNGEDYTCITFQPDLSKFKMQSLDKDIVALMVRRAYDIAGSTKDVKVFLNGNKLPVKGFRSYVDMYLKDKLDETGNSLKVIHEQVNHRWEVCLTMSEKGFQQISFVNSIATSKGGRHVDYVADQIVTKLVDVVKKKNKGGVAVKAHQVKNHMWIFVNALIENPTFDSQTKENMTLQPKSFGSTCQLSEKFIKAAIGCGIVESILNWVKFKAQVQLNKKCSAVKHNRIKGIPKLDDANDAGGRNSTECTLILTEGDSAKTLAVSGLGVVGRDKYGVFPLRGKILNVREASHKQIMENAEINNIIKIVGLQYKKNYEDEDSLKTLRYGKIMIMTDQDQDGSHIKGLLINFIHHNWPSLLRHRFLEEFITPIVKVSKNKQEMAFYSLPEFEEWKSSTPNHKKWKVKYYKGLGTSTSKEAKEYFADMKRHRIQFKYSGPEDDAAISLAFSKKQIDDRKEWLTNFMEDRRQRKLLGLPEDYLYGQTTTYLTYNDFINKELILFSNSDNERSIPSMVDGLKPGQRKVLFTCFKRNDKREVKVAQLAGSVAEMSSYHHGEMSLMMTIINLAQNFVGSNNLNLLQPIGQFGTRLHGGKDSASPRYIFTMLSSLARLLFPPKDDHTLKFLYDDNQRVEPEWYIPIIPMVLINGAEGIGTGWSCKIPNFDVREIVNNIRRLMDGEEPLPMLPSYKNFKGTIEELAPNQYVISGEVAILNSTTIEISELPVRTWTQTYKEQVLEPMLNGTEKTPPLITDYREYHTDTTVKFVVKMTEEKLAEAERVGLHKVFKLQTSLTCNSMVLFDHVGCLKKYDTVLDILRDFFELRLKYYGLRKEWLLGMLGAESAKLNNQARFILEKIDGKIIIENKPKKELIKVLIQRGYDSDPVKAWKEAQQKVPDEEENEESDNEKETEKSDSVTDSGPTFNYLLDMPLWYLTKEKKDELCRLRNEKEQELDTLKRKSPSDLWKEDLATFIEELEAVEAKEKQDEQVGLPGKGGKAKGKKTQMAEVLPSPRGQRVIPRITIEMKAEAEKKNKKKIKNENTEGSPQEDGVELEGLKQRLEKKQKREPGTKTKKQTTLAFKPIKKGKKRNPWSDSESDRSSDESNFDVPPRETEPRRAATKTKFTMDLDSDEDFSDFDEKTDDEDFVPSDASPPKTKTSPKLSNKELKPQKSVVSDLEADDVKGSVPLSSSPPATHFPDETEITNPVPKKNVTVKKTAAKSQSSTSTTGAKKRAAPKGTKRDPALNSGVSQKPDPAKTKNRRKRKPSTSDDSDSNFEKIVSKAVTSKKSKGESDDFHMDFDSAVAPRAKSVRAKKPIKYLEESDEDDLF

| SMILES | IC50 (HCT-116) [µM] | IC50 (A549 [2]) [µM] | IC50 (MDA-MB-435) [µM] | inhibition [4] | further results |
| --- | --- | --- | --- | --- | --- |
| CC[C@@]1(O)C(=O)OCc2c1cc1n(c2=O)Cc2cc3c(CN(C)C)c(O)ccc3nc2-1 [TOPOTECAN] |  |  |  |  | Activity (Mus musculus): Toxic; TGI (A549 [1]): Active |
| CC[C@]1(O)c2cc3n(c(=O)c2CO[C@H]1F)Cc1c-3nc2ccccc2c1C1CC1 | 3.39 | 15.5 | 9.41 |  |  |
| CC[C@]1(O)c2cc3n(c(=O)c2CO[C@H]1F)Cc1cc2ccccc2nc1-3 [(20S,21S)-FLUOROCAMPTOTHECIN] | 6.35 | 9.95 | 58.3 | Active | remaining at 6 h [3]: 96% |
| CC[C@]1(O)c2cc3n(c(=O)c2CO[C@H]1F)Cc1cc2cc(OC)ccc2nc1-3 | 6.15 | 41.7 | > 100 | Active |  |
| CC[C@]1(O)c2cc3n(c(=O)c2CO[C@H]1F)Cc1c-3nc2ccccc2c1C(C)C | 65.7 | > 100 | 41.1 |  |  |
| CCCc1c2c(nc3ccccc13)-c1cc3c(c(=O)n1C2)CO[C@@H](F)[C@]3(O)CC | 0.82 | 2.54 | 2.32 |  |  |
| CCCCc1c2c(nc3ccccc13)-c1cc3c(c(=O)n1C2)CO[C@@H](F)[C@]3(O)CC | 0.27 | 17.7 | 3.53 | Active |  |
| CC[C@]1(O)c2cc3n(c(=O)c2CO[C@H]1F)Cc1c-3nc2ccccc2c1C1CCCC1 | 19.8 | 4.14 | 11.8 |  |  |
| CC[C@]1(O)c2cc3n(c(=O)c2CO[C@H]1F)Cc1cc2c([N+](=O)[O-])cccc2nc1-3 | 1.02 | 11.3 | 53 | Active |  |
| CC[C@]1(O)c2cc3n(c(=O)c2CO[C@H]1F)Cc1c-3nc2ccccc2c1C | 1.46 | 4.23 | 8.66 |  |  |
| CCc1c2c(nc3ccc(OC)cc13)-c1cc3c(c(=O)n1C2)CO[C@@H](F)[C@]3(O)CC | 1.45 | 6.35 | 12.7 |  |  |
| CC[C@]1(O)c2cc3n(c(=O)c2CO[C@H]1F)Cc1c-3nc2ccccc2c1C1CCCCC1 [(20S,21S)-7-CYCLOHEXYLFLUOROCAMPTOTHECIN] | 0.07 | 0.71 | 0.41 | Active | Activity (Mus musculus): Non-toxic; inhibition in vivo at 4 mg/kg (A549 [5]): 63%; TGI (A549 [6]): Dose-dependent effect; inhibition in vivo at 2 mg/kg (A549 [7]): 34%; Activity (A549 [8]): Active; Activity (A549 [9]): 94.11%; Activity (A549 [10]): Active; inhibition [11]: inactive; inhibition [12]: inactive; Stability [13]: Stable; Activity (A549 [14]): Active |
| CCc1c2c(nc3ccccc13)-c1cc3c(c(=O)n1C2)CO[C@@H](F)[C@]3(O)CC | 8.53 | 12.7 | 10.9 |  |  |
| CC[C@]1(O)c2cc3n(c(=O)c2CO[C@@H]1F)Cc1cc2ccccc2nc1-3 [(20S,21R)-FLUOROCAMPTOTHECIN] | 50.9 | 46.2 | > 100 | Active |  |
| CC[C@@]1(O)C(=O)OCc2c1cc1n(c2=O)Cc2cc3ccccc3nc2-1 [CAMPTOTHECIN] | 0.07 | 0.65 | < 0.001 |  | remaining at 6 h [3]: 42.7% |
| CC[C@]1(O)c2cc3n(c(=O)c2CO[C@H]1F)Cc1c-3nc2ccccc2c1C1CCC1 | 95.4 | 1 | 15.8 |  |  |
